{"source": "paper PMC6831285", "about": "“TMTP1-modified Indocyanine Green-loaded Polymeric Micelles for Targeted Imaging of Cervical Cancer and Metastasis Sentinel Lymph Node in vivo” (Theranostics, 2019)", "key": {"[1]": {"test": "Plasma pharmacokinetic study", "assay_type": "in vivo, BALB/c-nude mice", "details": "0.5 mg/kg ICG", "description": "Normal BALB/c-nude mice were administered intravenously with ITM or free ICG solution at an dose of 10 μg, respectively. At designed time points of 5 min, 10 min, 30 min, 1 h, 2 h, 3 h, 4 h, 8 h and 12 h post- injection, […] blood samples were collected into EDTA tubes and centrifuged at 6000 rpm for 10 min to obtain plasma. A fluorescence spectrophotometer with excitation and emission wavelengths of 745 nm and 840 nm was used to measure the ICG of the supernatant. The ICG content in the plasma was then assayed."}, "[2]": {"test": "Photostability under visible light", "assay_type": "physicochemical", "details": "after 1 day of exposure to visible light, 10 μg/mL", "description": "The effect of the light exposure on the degradation of ITM or IM was determined with visible light at room temperature. The ICG and ICG-loaded micelles were diluted with distilled water to a final concentration of 10 μg/mL and were loaded into a 12-well plate. The fluorescence intensity was measured for up to 6 days. After incubation, the remaining fluorescence of each sample was measured using a spectrofluorometer with excitation and emission wavelengths of 745 nm and 840 nm, respectively. For the quantitative analysis, we normalized the fluorescence signal intensity."}, "popliteal (PO) LN": {"test_system": "popliteal (PO) LN", "test": "NIR fluorescence LN imaging of normal mice", "assay_type": "in vivo, BALB/c nude mice", "details": "intradermal injection into right paw, ICG 1.0 mg/kg", "description": "For the SLN metastasis model, 1 × 10^7 HeLa-luc cells in 15 μL PBS were injected into the right hock of 5-week-old BALB/c-nude mice. The mice were monitored by BLI weekly to detect tumor metastases. After 1 month, tumor was about 5 mm with PO LN metastasis. HeLa-bearing mice were divided two groups randomly (n=10) and injected ITM and IM micelles via foot at equivalent ICG dose of 2 μg. At designed time points (5 min, 30 min, 1 h, 12 h and 24 h), the NIR fluorescence images in vivo were obtained. At 30 min and 1 h post injection, 2 mice from each group were randomly sacrificed and the excised main LNs were imaged. After 24 h post injection, LNs and main organs (heart, liver, spleen, lung, and kidney) were handled as described. In the same way, normal mice were divided into two groups randomly (n=5) and injected intradermally ITM or IM via foot. The NIR fluorescence images were acquired as mentioned above."}}}
{"smiles": "CC1(C)C(/C=C/C=C/C=C/C=C2\\N(CCCCS(=O)(=O)O)c3ccc4ccccc4c3C2(C)C)=[N+](CCCCS(=O)(=O)[O-])c2ccc3ccccc3c21", "note": "[Free ICG, indocyanine green]", "values": [{"measurement": "Cmax", "setting": "[1]; BALB/c-nude, mouse, iv", "value": 134, "unit": "ng/mL"}, {"measurement": "MRT", "setting": "[1]; BALB/c-nude, mouse, iv", "value": 268, "unit": "min"}, {"measurement": "Tmax", "setting": "[1]; BALB/c-nude, mouse, iv", "value": 5, "unit": "min"}, {"measurement": "clearance", "setting": "[1]; BALB/c-nude, mouse, iv", "value": 18, "unit": "mL/min/kg"}, {"measurement": "half-life", "setting": "[1]; BALB/c-nude, mouse, iv", "value": 4, "unit": "min"}, {"measurement": "AUC(0-t)", "setting": "[1]; BALB/c-nude, mouse, iv, read-out: AUC (0-12 h) in plasma (converted)", "value": 224, "unit": "ng·h/mL"}, {"measurement": "V", "setting": "[1]; i.v.", "value": 21.358, "unit": "L/kg"}, {"measurement": "fluorescence intensity remaining, of initial value", "setting": "[2]", "value": "less than 50%"}, {"measurement": "time within which the NIR fluorescence signal in SLN decreased quickly", "setting": "popliteal (PO) LN", "value": "≤ 1", "unit": "h"}]}
